Consider 31 compounds from patent US6737431B2 (Bristol-Myers Squibb Company, priority 2002, dated 2004).

Molecules are shown by their SMILES. Bounds are passed on as bounds.

One experiment concerns the target T1, melatonin ML1a receptor (Homo sapiens, UniProt P48039).
T1 construct: expressed in transfected cells; membrane homogenates
Briefly: Melatonergic receptor binding, 2-[125I]-iodomelatonin, ML1a. To be noted: NIH-3T3 membranes, 0.1 nM 2-[125I]-iodomelatonin, 37° C. 1 hour. The procedure:
(§1) Melatonergic Receptor Binding Activity
(§2) (a) TME=50 mM Tris buffer containing 12.5 mM MgCl2, and 2 mM EDTA, pH 7.4 at 37° C., with concentrated HCl.
(§3) (b) Wash buffer: 20 mM Tris base containing 2 mM MgCl2, pH 7.4 at room temperature.
(§4) (c) 10^−4 M melatonin (10^−5 M final concentration).
(d) 2-[^125I]-iodomelatonin ML1a, 0.1 nM final concentration.
(§5) 2. Membrane Homogenates: The melatonin ML1a and ML1b receptors cDNA were individually subcloned into pcDNA3 and introduced into NIH-3T3 cells using Lipofectamine. Transformed NIH-3T3 cells resistant to geneticin (G-418) were isolated, and single colonies expressing high levels of 2[^125I]-iodomelatonin binding were isolated. Cells are maintained in DMEM supplemented with 10% calf serum and G-418 (0.5 g/liter). Cells are grown to confluency in T-175 flasks, scraped using Hank's balanced salt solution, and frozen at −80° C. For preparing membrane homogenates, pellets are thawed on ice, and re-suspended in TME buffer in the presence of 10 μg/ml aprotinin and leupeptin, and 100 μM phenylmethylsulfonylfluoride. The cells were then homogenized using a dounce homogenizer, and centrifuged. The resulting pellet was re-suspended with dounce homogenizer in TME (supplemented with the above protease inhibitors) and frozen. On the day of assay, a small aliquot was thawed on ice and re-suspended in the ice cold TME (1:50-1:100 v/v) and held on ice until assayed.
(§6) 3. Incubation: 37° C. for 1 hour. Reaction is terminated by filtration. Filters were washed 3 times.
(§7) 4. References: Reppert, S. M. et al., Neuron, 13, p. 1177-1185 (1994); and Reppert, S. M. et al., Proc. Natl. Acad. Sci. USA, 92, p. 8734-8738 (1995).
(§8) The compounds of the present invention have affinity for receptors of the endogenous pineal hormone, melatonin, as determined in receptor binding assays described above in Tables I to III for the ML1a and ML1b (human) receptors. Melatonin is involved in the regulation of a variety of biological rhythms and exerts its biological effects via interaction with specific receptors. There is evidence that administration of melatonin agonists are of clinical utility in the treatment of various conditions regulated by melatonin activity. Such conditions include depression, jet-lag, work-shift syndrome, sleep disorders, glaucoma, some disorders associated with reproduction, cancer benign prostatic hyperplasia, immune disorders, and neuroendocrine disorders.

The target in the next experiment is T2, melatonin ML1b receptor (Homo sapiens, UniProt P49286).
T2 construct: expressed in transfected cells; membrane homogenates
T2 sequence (P49286 1-362): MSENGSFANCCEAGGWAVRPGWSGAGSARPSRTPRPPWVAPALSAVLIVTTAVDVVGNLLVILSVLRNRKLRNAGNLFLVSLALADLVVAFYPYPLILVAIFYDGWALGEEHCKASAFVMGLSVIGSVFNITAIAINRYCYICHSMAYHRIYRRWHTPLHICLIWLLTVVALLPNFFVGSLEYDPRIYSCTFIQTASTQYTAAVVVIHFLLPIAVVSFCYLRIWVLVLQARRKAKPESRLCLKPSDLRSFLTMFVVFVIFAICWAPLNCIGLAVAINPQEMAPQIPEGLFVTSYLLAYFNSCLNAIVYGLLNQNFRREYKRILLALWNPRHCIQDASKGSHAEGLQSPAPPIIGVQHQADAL
Description: Melatonergic receptor binding, 2-[125I]-iodomelatonin, ML1b. To be noted: NIH-3T3 membranes, 0.2 nM 2-[125I]-iodomelatonin, 37° C. 1 hour. The procedure: as §1, §2, §3, §4
(e) 2-[^125I]-iodomelatonin ML1b, 0.2 nM final concentration.
as §5, §6, §7, §8

The IC50 is the midpoint of a concentration-inhibition curve. Low readings indicate higher potency, high ones lower potency.

T1 sequence (P48039 whole entry): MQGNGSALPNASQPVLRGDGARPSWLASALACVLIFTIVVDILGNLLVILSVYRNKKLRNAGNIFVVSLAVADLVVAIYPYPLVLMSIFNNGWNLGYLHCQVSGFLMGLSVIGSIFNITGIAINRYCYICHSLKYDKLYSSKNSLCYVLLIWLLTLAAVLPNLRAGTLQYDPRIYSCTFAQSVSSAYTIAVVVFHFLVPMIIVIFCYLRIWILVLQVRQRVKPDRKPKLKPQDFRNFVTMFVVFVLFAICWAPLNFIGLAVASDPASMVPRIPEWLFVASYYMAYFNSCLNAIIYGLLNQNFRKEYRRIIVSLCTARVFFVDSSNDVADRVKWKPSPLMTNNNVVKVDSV

As to `CCCc1nc2cccc([C@@H]3C[C@H]3CNC(=O)CC)c2o1` [Example 84, N-{[(1R,2R)-2-(2-Propylbenzoxazol-7-yl)cyclopropyl]methyl}propanamide], the IC50 at melatonin ML1a receptor (Table III) and on melatonin ML1b receptor (Table III) was below 10 nM in each case.
Regarding `CCCC(=O)NCCCc1cccc2nc(CCC)oc12` [Example 15, N-[3-(2-Propylbenzoxazol-7-yl)propyl]butanamide], the values for the IC50 on melatonin ML1a receptor (Table I) and on melatonin ML1b receptor (Table I) were above 250 nM and 10 to 250 nM, respectively.
As to `CCc1nc2cccc([C@@H]3C[C@H]3CNC(=O)C(C)C)c2o1` [Example 79, N-{[(1R,2R)-2-(2-Ethylbenzoxazol-7-yl)cyclopropyl]methyl}-2-methylpropanamide], the IC50 on melatonin ML1a receptor (Table III) and at melatonin ML1b receptor (Table III) was below 10 nM throughout.
For `CCc1nc2cc(-c3ccc(F)cc3)cc(CCCNC(C)=O)c2o1` [Example 58, N-[3-(2-Ethyl-5-(4-fluorophenyl)benzoxazol-7-yl)propyl]acetamide], the half-maximal inhibitory concentration (IC50) on melatonin ML1a receptor (Table II) and at melatonin ML1b receptor (Table II) was 10 to 250 nM each time.
For the compound `CC(C)c1nc2cccc([C@@H]3C[C@H]3CNC(=O)C3CC3)c2o1` [Example 91, N-({(1R,2R)-2-[2-(Methylethyl)benzoxazol-7-yl]cyclopropyl}methyl)cyclopropylcarboxamide], the IC50 on melatonin ML1a receptor (Table III) and at melatonin ML1b receptor (Table III) was below 10 nM in each case.
Consider `CCc1nc2ccc(C)c(CCCNC(C)=O)c2o1` [Example 44, N-[3-(2-Ethyl-6-methylbenzoxazol-7-yl)propyl]acetamide], for which the IC50 on melatonin ML1a receptor (Table II) and at melatonin ML1b receptor (Table II) was 10 to 250 nM each time.
In the case of `CCc1nc2cc(-c3ccc(F)cc3)cc(CCCNC(=O)c3ccccc3)c2o1` [Example 59, N-{3-[2-Ethyl-5-(4-fluorophenyl)benzoxazol-7-yl]propyl}benzamide], the concentration for half-maximal inhibition (IC50) on melatonin ML1a receptor (Table II) and at melatonin ML1b receptor (Table II) was above 250 nM throughout.
On to `CCCC(=O)NCCCc1cccc2nc(CCCCc3ccccc3)oc12` [Example 27, N-{3-[2-(4-Phenylbutyl)benzoxazol-7-yl]propyl}butanamide], for which the IC50 is below 10 nM at melatonin ML1a receptor (Table I) and 10 to 250 nM on melatonin ML1b receptor (Table I).
On to `CCc1nc2cc(-c3ccccc3)cc(CCCNC(C)=O)c2o1` [Example 65, N-[3-(2-Ethyl-5-phenylbenzoxazol-7-yl)propyl]acetamide], for which the 50% inhibitory concentration (IC50) was above 250 nM on melatonin ML1a receptor (Table II) and 10 to 250 nM on melatonin ML1b receptor (Table II).
Take `CC(C)C(=O)NCCCc1cccc2nc(-c3ccccc3)oc12` [Example 22, 2-Methyl-N-[3-(2-phenylbenzoxazol-7-yl)propyl]propanamide]: the IC50 at melatonin ML1a receptor (Table I) and on melatonin ML1b receptor (Table I) was 10 to 250 nM in each case.
In the case of `CC(=O)NCCCc1cccc2nc(C)oc12` [Example 1, N-[3-(2-Methyl-7-benzoxazolyl)propyl]acetamide], the IC50 on melatonin ML1a receptor (Table I) and at melatonin ML1b receptor (Table I) was 10 to 250 nM throughout.
Regarding `CCc1nc2ccc(C)c(CCCNC(=O)c3ccccc3)c2o1` [Example 45, N-[3-(2-Ethyl-6-methylbenzoxazol-7-yl)propyl]benzamide], the concentration for half-maximal inhibition (IC50) at melatonin ML1a receptor (Table II) and at melatonin ML1b receptor (Table II) was 10 to 250 nM throughout.
With `CCc1nc2cc(Br)cc(CCCNC(=O)OC(C)(C)C)c2o1` [Example 40], the 50% inhibitory concentration (IC50) is 10 to 250 nM at melatonin ML1a receptor (Table II) and above 250 nM at melatonin ML1b receptor (Table II).
The like results for `CCc1nc2cc(Br)cc(CCCNC(=O)C3CC3)c2o1` [Example 70, N-[3-(5-Bromo-2-ethylbenzoxazol-7-yl)propyl]cyclopropylcarboxamide] were, in that order, above 250 nM and 10 to 250 nM.
On to `CCC(=O)NCCCc1cccc2ncoc12` [Example 32, N-(3-Benzoxazol-7-ylpropyl)propanamide], for which the IC50 at melatonin ML1a receptor (Table I) is 10 to 250 nM; at melatonin ML1b receptor (Table I), below 10 nM.
As to `CCc1nc2ccc(Br)c(CCCNC(C)=O)c2o1` [Example 42, N-Acetyl-7-(3-aminopropyl)-6-bromo-2-ethylbenzoxazole], the IC50 on melatonin ML1a receptor (Table II) is 10 to 250 nM; on melatonin ML1b receptor (Table II), below 10 nM.
For the compound `CCNC(=O)NC[C@@H]1C[C@H]1c1cccc2nc(CC)oc12` [Example 81, N-{[(1R,2R)-2-(2-Ethylbenzoxazol-7-yl)cyclopropyl]methyl}(ethylamino)carboxamide], the half-maximal inhibitory concentration (IC50) at melatonin ML1a receptor (Table III) and at melatonin ML1b receptor (Table III) was below 10 nM in each case.
As for `CCc1nc2ccc(-c3ccc(C(F)(F)F)cc3)c(CCCNC(C)=O)c2o1` [Example 50, N-(3-{2-Ethyl-6-[4-(trifluoromethyl)phenyl]benzoxazol-7-yl}propyl)acetamide], the IC50 is above 250 nM at melatonin ML1a receptor (Table II) and 10 to 250 nM on melatonin ML1b receptor (Table II).
Consider `CC(C)C(=O)NCCCc1cccc2nc(C(C)C)oc12` [Example 37, 2-Methyl-N-{3-[2-(methylethyl)benzoxazol-7-yl]propyl}propanamide], for which the half-inhibitory concentration (IC50) on melatonin ML1a receptor (Table I) and at melatonin ML1b receptor (Table I) was 10 to 250 nM in each case.
As to `CCc1nc2cccc(CCCNC(C)=O)c2o1` [Example 7, N-[3-(2-Ethylbenzoxazol-7-yl)propyl]acetamide], the IC50 was 10 to 250 nM on melatonin ML1a receptor (Table I) and below 10 nM on melatonin ML1b receptor (Table I).
With `CCc1nc2ccc(-c3ccccc3)c(CCCNC(=O)c3ccccc3)c2o1` [Example 56, N-[3-(2-Ethyl-6-phenylbenzoxazol-7-yl)propyl]benzamide], the IC50 at melatonin ML1a receptor (Table II) and at melatonin ML1b receptor (Table II) was 10 to 250 nM each time.
With `CC(=O)NCCCc1cccc2ncoc12` [Example 31, N-(3-Benzoxazol-7-ylpropyl)acetamide], the concentration for half-maximal inhibition (IC50) at melatonin ML1a receptor (Table I) and on melatonin ML1b receptor (Table I) was 10 to 250 nM throughout.
With `O=C(NCCCc1cccc2nc(CCCCc3ccccc3)oc12)C1CC1` [Example 29, Cyclopropyl-N-{3-[2-(4-phenylbutyl)benzoxazol-7-yl]propyl}carboxamide], the IC50 was below 10 nM at melatonin ML1a receptor (Table I) and 10 to 250 nM at melatonin ML1b receptor (Table I).
The like results for `CC(=O)NCCCc1cccc2nc(-c3ccccc3)oc12` [Example 19, N-[3-(2-Phenylbenzoxazol-7-yl)propyl]acetamide] were, in that order, 10 to 250 nM and 10 to 250 nM.
Regarding `CCc1nc2cc(-c3ccc(C(F)(F)F)cc3)cc(CCCNC(=O)c3ccccc3)c2o1` [Example 61, N-(3-{2-Ethyl-5-[4-(trifluoromethyl)phenyl]benzoxazol-7-yl}propyl)benzamide], the figures for the IC50 on melatonin ML1a receptor (Table II) and at melatonin ML1b receptor (Table II) were 10 to 250 nM and above 250 nM, respectively.
On to `CC(C)C(=O)NCCCc1cccc2nc(CCCCc3ccccc3)oc12` [Example 28, 2-Methyl-N-{3-[2-(4-phenylbutyl)benzoxazol-7-yl]propyl}propanamide], for which the IC50 on melatonin ML1a receptor (Table I) was below 10 nM; on melatonin ML1b receptor (Table I), 10 to 250 nM.
Regarding `C=Cc1ccc2nc(CC)oc2c1CCCNC(C)=O` [Example 43, N-Acetyl-7-(3-aminopropyl)-6-vinyl-2-ethylbenzoxazole], the half-inhibitory concentration (IC50) on melatonin ML1a receptor (Table II) is 10 to 250 nM; at melatonin ML1b receptor (Table II) it was below 10 nM.
As for `CC(C)C(=O)NCCCc1cccc2ncoc12` [Example 33, N-(3-Benzoxazol-7-ylpropyl)-2-methylpropanamide], the IC50 at melatonin ML1a receptor (Table I) is 10 to 250 nM; on melatonin ML1b receptor (Table I), below 10 nM.
For `CCCC(=O)NCCCc1cccc2nc(CC)oc12` [Example 9, N-[3-(2-Ethylbenzoxazol-7-yl)propyl]butanamide] the same measures were 10 to 250 nM and below 10 nM.
`CCc1nc2ccc(C)c(CCCNC(=O)C3CC3)c2o1` [Example 46, Cyclopropyl-N-[3-(2-ethyl-6-methylbenzoxazol-7-yl)propyl]carboxamide]: the IC50 at melatonin ML1a receptor (Table II) and on melatonin ML1b receptor (Table II) was below 10 nM in each case.
Turning to `CCc1nc2ccc(-c3ccco3)c(CCCNC(=O)c3ccccc3)c2o1` [Example 74, N-[3-(2-Ethyl-6-(2-furyl)benzoxazol-7-yl)propyl]benzamide], the IC50 at melatonin ML1b receptor (Table II) is above 250 nM.
